Test results from patent publication US10583092B2, “Therapeutic nanoparticles comprising a protonatable nitrogen therapeutic agent and methods of making and using same” (Pfizer Inc., priority 2014, dated 2020).

Assay: Solubility of dasatinib in solvents, quantified using HPLC
Assay type: physicochemical
Conditions: benzyl alcohol doped with oleic acid versus benzyl alcohol
Description: The solubility of dasatinib in benzyl alcohol, ethyl acetate, and mixtures of oleic acid and benzyl alcohol were quantified using HPLC.

improvement of solubility: 2-3 fold
Compound: Cc1nc(Nc2ncc(C(=O)Nc3c(C)cccc3Cl)s2)cc(N2CCN(CCO)CC2)n1 [dasatinib]
